# Key:
# [1] = system: HIV-1; details: concentration at which cell infection by a virus having tropism for said cell is 100% blocked
# Source text: A "saturating dose of an inhibitor" denotes a concentration of inhibitor at which cell infection by a virus having tropism for said cell is 100% blocked by the inhibitor, which is function of the inhibitor.
# [2] = system: X4 tropic virus; details: mixture of viral envelopes from reference viruses NL4-3 and JR-CSF; infection via CXCR4; inhibitor at saturating dose; Figure 5
# Method: Viral supernatants are used to infect U373MG-CD4 indicator cells expressing either the CCR5 or CXCR4 co-receptor (U373-CCR5 or U373-CXCR4), in presence or absence of co-receptor inhibitors at a saturating dose. The indicator cells contain the lacZ gene under control of the HIV-1 LTR which allows the determination of viral infection and thus of viral tropism using a colorimetric assay based on the expression of the β-galactosidase by Tat (see Figure 4).
# In the RVA tropism, viral infection is detected independently for both co-receptors. A sample is considered positive when the ratio [OD sample/ OD control] reaches or exceeds 1.5 (the control being an R5-tropic virus on CXCR4+ cells or a X4-tropic virus on CCR5+ cells).
# On the day of infection, the condition of the indicator U373-CCR5 and U373-CXCR4 cells is verified. CXCR4- and CCR5-inhibitors are prepared at 4x their final concentrations used in the test (e.g. 4x AMD-3100 at 8 µg/ml). […]
# The β-galactosidase produced by the infected U373-CCR5 or U373-CXCR4 cells is quantified: the level of marker expressed is quantified by measuring the β-galactosidase activity by using a CPRG (chlorophenolred-β-D-galactopyranoside) substrate. […]
structure (smiles),measurement,setting,value
c1cc(CN2CCCNCCNCCCNCC2)ccc1CN1CCCNCCNCCCNCC1 [AMD3100],saturating dose of an inhibitor,[1],up to 2 µg/ml
same,inhibition of infection,[2],100%

# From patent EP1914309A1 (priority 2006, dated 2008)
